Experimental data taken from patent US20090280130A1 (priority 2006, published 2009).
“And” between values parts separate entries of the source, which are not always exact repeats. Equal entries are not always repeated. “Also recorded” adds a separate entry of the source.

How the values were obtained:
zebrafish embryos [1] = format: in vivo; settings: n>30
zebrafish embryos [2] = settings: in vivo
[3] = tested on: mouse skin microvasculature; parameters: species or system C3H/HeJ mice; settings: in vivo
VEGFR2 [4] = target: VEGFR2 (Mus musculus, UniProt P35918); settings: cited from earlier work
zebrafish embryos [5] = settings: in vivo; remark: listed apart in the source
zebrafish embryos [6] = format: in vivo; settings: 5 μM for 6 hours
zebrafish embryos [7] = settings: in vivo; remark: listed apart in the source
VEGFR1 = VEGFR1 (Homo sapiens, UniProt P17948); settings: cited from earlier work
VEGFR2 [8] = target: T1, VEGFR2 (Homo sapiens, UniProt P35968); settings: cited from earlier work
VEGFR2 [9] = target: T1, VEGFR2; settings: cited from earlier work; remark: listed apart in the source

T1 sequence (P35968 20-1356): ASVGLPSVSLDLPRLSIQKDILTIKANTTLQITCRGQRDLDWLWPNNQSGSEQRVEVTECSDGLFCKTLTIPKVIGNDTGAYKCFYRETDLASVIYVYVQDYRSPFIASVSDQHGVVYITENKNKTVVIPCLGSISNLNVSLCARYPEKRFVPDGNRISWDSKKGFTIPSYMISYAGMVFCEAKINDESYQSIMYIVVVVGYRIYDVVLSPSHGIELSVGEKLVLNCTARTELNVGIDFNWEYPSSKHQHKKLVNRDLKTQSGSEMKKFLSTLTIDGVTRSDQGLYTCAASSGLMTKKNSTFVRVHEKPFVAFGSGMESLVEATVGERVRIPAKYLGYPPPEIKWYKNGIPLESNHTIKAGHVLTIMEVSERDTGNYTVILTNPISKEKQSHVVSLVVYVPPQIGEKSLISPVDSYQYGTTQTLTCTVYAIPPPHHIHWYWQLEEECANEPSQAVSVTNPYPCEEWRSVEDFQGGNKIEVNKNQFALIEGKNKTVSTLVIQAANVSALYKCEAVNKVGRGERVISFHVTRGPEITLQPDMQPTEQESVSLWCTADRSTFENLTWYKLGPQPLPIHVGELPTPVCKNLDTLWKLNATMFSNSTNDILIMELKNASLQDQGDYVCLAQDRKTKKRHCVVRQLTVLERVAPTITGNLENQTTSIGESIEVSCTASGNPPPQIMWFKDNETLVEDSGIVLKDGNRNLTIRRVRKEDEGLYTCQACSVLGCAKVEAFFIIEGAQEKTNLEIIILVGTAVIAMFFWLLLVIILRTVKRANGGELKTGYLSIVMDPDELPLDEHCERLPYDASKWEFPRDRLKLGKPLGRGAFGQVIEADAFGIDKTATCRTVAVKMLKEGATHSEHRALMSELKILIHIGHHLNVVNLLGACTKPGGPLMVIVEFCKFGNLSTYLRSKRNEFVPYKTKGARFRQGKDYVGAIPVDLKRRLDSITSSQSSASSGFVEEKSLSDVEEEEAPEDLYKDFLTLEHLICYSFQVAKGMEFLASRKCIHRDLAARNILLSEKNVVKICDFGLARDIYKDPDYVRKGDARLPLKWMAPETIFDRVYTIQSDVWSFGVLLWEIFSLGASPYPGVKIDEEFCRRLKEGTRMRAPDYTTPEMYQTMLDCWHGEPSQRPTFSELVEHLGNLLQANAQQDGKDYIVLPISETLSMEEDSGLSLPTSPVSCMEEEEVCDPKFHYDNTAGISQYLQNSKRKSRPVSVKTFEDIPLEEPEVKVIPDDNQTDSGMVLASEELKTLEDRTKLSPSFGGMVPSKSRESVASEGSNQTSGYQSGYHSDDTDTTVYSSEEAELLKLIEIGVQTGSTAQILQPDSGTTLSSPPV
VEGFR2 (Mus musculus, UniProt P35918), sequence (P35918 20-1345): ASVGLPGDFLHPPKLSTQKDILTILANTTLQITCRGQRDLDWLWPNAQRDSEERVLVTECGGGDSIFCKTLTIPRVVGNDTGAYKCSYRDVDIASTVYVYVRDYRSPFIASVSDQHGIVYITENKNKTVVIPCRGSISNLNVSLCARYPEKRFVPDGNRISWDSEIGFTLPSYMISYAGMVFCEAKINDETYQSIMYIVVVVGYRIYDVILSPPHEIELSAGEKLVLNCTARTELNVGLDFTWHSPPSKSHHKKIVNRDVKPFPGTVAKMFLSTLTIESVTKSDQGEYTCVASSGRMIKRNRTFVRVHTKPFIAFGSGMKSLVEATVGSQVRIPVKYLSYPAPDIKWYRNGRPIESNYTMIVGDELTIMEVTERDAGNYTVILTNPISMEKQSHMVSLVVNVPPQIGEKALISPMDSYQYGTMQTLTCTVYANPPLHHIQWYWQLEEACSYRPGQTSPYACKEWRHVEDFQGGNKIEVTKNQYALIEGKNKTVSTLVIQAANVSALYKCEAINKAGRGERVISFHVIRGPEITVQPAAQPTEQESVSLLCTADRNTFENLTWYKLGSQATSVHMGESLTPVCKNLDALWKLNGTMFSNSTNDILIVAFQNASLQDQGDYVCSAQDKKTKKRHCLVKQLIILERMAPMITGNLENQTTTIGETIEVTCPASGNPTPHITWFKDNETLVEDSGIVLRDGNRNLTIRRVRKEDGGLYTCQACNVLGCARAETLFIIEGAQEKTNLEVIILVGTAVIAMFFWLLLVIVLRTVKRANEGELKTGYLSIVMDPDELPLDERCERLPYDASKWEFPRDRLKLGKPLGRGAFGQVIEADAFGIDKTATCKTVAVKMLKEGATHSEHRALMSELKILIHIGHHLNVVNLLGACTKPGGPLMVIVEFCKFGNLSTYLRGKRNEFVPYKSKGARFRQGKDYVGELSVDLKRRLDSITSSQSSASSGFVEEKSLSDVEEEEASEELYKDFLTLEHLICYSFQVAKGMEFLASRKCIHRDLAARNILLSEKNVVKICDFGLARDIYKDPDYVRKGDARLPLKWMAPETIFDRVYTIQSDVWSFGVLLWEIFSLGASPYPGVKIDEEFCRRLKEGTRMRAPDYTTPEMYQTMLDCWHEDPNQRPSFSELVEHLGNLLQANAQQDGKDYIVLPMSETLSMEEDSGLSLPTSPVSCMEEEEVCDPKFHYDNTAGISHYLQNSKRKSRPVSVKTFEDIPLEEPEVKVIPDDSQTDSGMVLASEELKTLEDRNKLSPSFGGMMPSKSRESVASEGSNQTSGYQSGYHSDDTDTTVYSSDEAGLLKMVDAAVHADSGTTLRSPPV
VEGFR1, sequence (P17948 27-1338): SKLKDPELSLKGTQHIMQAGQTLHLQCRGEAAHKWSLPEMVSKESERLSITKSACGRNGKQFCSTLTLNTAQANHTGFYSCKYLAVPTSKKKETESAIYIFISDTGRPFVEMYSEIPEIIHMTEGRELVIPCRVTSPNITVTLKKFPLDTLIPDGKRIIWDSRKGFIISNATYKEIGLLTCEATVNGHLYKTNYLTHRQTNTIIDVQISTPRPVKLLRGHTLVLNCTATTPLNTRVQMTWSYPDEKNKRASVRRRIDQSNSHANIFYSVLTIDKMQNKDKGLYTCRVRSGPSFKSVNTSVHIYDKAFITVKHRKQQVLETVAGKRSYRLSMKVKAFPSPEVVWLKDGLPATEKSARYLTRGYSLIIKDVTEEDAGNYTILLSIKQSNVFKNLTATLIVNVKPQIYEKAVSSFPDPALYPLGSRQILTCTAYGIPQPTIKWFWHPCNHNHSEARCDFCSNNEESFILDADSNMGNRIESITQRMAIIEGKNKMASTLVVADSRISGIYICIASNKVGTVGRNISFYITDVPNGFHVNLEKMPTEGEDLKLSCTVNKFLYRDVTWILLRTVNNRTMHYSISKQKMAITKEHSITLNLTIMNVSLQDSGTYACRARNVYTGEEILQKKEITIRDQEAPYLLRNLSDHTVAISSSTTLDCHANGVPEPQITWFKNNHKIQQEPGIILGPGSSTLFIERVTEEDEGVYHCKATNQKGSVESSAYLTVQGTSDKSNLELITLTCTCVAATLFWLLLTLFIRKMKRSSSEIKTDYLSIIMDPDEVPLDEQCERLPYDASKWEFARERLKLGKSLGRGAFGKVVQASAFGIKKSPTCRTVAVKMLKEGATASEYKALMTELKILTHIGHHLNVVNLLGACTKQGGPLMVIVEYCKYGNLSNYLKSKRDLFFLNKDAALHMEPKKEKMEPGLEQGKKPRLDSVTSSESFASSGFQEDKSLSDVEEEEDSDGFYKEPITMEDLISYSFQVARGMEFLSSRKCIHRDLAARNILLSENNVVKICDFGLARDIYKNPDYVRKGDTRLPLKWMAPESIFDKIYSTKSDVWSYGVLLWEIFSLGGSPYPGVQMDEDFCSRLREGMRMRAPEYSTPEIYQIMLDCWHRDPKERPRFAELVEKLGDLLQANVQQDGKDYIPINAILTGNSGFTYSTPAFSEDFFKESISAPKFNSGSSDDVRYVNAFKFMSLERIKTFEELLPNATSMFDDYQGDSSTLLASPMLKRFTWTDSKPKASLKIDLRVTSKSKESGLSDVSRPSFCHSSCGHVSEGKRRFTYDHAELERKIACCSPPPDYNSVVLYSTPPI

O=C(NOCC1CC1)c1ccc(F)c(F)c1Nc1ccc(I)cc1Cl [CI-1040]
embryos in which LeTx effects were phenocopied (zebrafish embryos [1]): 100%

CCN(CC)CCNC(=O)c1c(C)[nH]c(/C=C2\C(=O)Nc3ccc(Cl)cc32)c1C [SU11652]
Mild Toxin Phenotype (zebrafish embryos [2]): 11
Protection against LeTx effects / phenotypes (in words) (zebrafish embryos [2]): demonstrated protection against LeTx effects
Severe Toxin Phenotype (zebrafish embryos [2]): 10
Wildtype Appearance (zebrafish embryos [2]): 1
LeTx induced vascular leakage, Evans Blue Dye (in words) [3]: attenuated LeTx induced vascular leakage significantly
Blocking of VEGFR2 activity in vivo (in words) (VEGFR2 [4]): used successfully to block VEGFR2 activity
% With Toxin Phen (Mild and Severe) (zebrafish embryos [5]): 80% and 100%
Mild Phen (zebrafish embryos [5]): 7 and 9 and 8
Protection against LeTx effects (in words) (zebrafish embryos [5]): able to protect against LeTx effects
Severe Toxin Phen (zebrafish embryos [5]): 9 and 11 and 12

Cn1cc(C=C2C(=O)Nc3ccc(S(N)(=O)=O)cc32)c2ccccc21 [Syk Inhibitor, 3-(1-Methyl-1H-indol-3-yl-methylene)-2-oxo-2,3-dihydro-1H-indol-5-sulfonamide]
Mild Toxin Phenotype (zebrafish embryos [2]): 7
Severe Toxin Phenotype (zebrafish embryos [2]): 14
Wildtype Appearance (zebrafish embryos [2]): 1

C[C@@H](N)[C@H]1CC[C@H](C(=O)Nc2ccncc2)CC1 [Y-27632]
Mild Toxin Phenotype (zebrafish embryos [2]): 6
Severe Toxin Phenotype (zebrafish embryos [2]): 13
Wildtype Appearance (zebrafish embryos [2]): 1

C[C@@H]1C[C@@H]([C@H](O)CC2CC(=O)NC(=O)C2)C(=O)[C@@H](C)C1 [cycloheximide]
Phenocopy of endothelial cell fragmentation in the intersegmental vessels (in words) (zebrafish embryos [6]): phenocopied

AG-1296
Mild Toxin Phenotype (zebrafish embryos [2]): 3
Severe Toxin Phenotype (zebrafish embryos [2]): 15
Wildtype Appearance (zebrafish embryos [2]): 2

ZM323881
Mild Toxin Phenotype (zebrafish embryos [2]): 10
Protection against LeTx effects / phenotypes (in words) (zebrafish embryos [2]): provided the best protection against the development of LeTx phenotypes; also recorded: demonstrated protection against LeTx effects
Severe Toxin Phenotype (zebrafish embryos [2]): 8
Wildtype Appearance (zebrafish embryos [2]): 4
Mild Toxin Phen (zebrafish embryos [7]): 12 and 8 and 9 and 13
Proportion of embryos displaying LeTx phenotypes (in words) (zebrafish embryos [7]): reduction in the proportion of embryos displaying LeTx phenotypes is seen in 3 concentrations of the inhibitor
Severe forms of the LeTx phenotype (in words) (zebrafish embryos [7]): dramatic reduction in the severe forms of the LeTx phenotype that occurred in all concentrations used
IC50 (VEGFR1): > 50 µM
LeTx induced vascular leakage, Evans Blue Dye (in words) [3]: attenuated LeTx induced vascular leakage significantly
Attenuation of toxin effects (in words) (zebrafish embryos [5]): able to attenuate the toxin effects
VEGFR2 activation (in words) (VEGFR2 [8]): inhibit VEGFR2 activation
IC50 (VEGFR2 [9]): < 0.002 µM

ZM449829
Mild Toxin Phenotype (zebrafish embryos [2]): 5
Severe Toxin Phenotype (zebrafish embryos [2]): 15
Wildtype Appearance (zebrafish embryos [2]): 1
